Assay results reported in patent US20230293614A1, “COMPOSITIONS AND METHODS OF TREATING UPS-ASSOCIATED DISEASES” (Board of Supervisors of Louisiana State University and …, priority 2020, published 2023).

What was measured:
[1] = MTT cellular viability assay, MM.1S; type: cell-based; details: human, MM.1S cells, read-out: percentage of viable cells
Experimental: (§1) The effect of PMI-5011 and bioactive compounds on the viability of cells was tested using a standard colorimetric MTT assay. The MTT Cell Proliferation Assay Kit was purchased from VWR, Radnor, Pa. MM.1S and OPM2 cells were treated with 10 μg/mL of PMI-5011 and 1, 10, and 30 μg/mL of DMC-1, DMC-2, KOE and davidigenin and plated at a density of 10^6 cells/mL in a 96-well plate with each well containing 250 μL of the sample. The plated cells were then incubated at 37° C. for 16 h. 10 μg/mL for PMI-5011 and a 16-h treatment period was used in this study based on previous findings by Yu et al.^24 Parallel plates were prepared for positive and negative solvent vehicle control with the same volume of DMSO and ethanol as for the treated cells. On the day of the experiment, the 96-well plates were centrifuged at 1000×g at 4° C. for 5 min in a microplate compatible centrifuge. The media was discarded and 50 μL of serum-free media and 50 μL of the MTT reagent were added into each well. For a background control, 50 μL of the MTT reagent was added into a well containing media only (no cells). The plate was incubated at 37° C. for 3 h in the dark. After incubation, 150 μL of the MTT solvent was added into each well. The plate was wrapped in a foil and placed on an orbital shaker for 15 min. Finally, the absorbance was measured at λex=544 nm and λem=590 nm using a Wallac 1420 VICTOR2 multilabel HTS counter fluorometry (Perkin Elmer (Waltham, Mass.). The percentage viable cells was obtained by Eq. 1.
(§2) % Viable Cells=S-N/C-N×100 (Eq. 1)
(§3) Where, S denotes raw absorbance values from samples, N denotes average absorbance value of the background control and C denotes the highest average absorbance value of positive vehicle control. The obtained percentage cytotoxicity values were then statistically analyzed for their significance. Each data point represents triplicate data points from duplicate experiments. The effect of PMI-5011 and the selected bioactive compounds on C2C12 cell viability has previously been reported.^24

[2] = test system: deubiquitinating enzymes (DUBs); assay: DUB activity (Z-LRGG-AMC cleavage) in lysates of treated OPM2 cells; type: cell-based; details: for Vmax / effect on DUB activity vs DMSO control / Km / n (Hill coefficient): 16 h; for effect of increasing concentration on DUB activity (normalized Vmax): 1, 10, 30 μg/mL, regression fit
Experimental: (§4) OPM2 cells were maintained in RPMI 1640 media supplemented with 12% FBS, 21.8 mM glucose, 8.6 mM HEPES (pH 7.4) and 1.0 mM sodium pyruvate. MM.1S cell line were maintained in RPMI 1640 media supplemented with 10% FBS. The cells were all cultured in T175 flasks (VWR, Radnor, Pa.). All media components were from Corning, Atlanta, Ga. unless otherwise noted. To test the effect of the ethanolic extract and bioactive compounds on DUB activity, cells were exposed to a 16-h pretreatment with 10 μg/mL of PMI-5011 and 1, 10, 30 μg/mL concentrations of DMC-1, DMC-2, KOE, and davidigenin before lysing the cells for experimentation. All compounds were reconstituted in DMSO to obtain stock concentrations, which was further diluted in culture media to obtain the desired experimental concentrations. For vehicle control, a subpopulation of cells was treated with pure DMSO diluted in a similar manner for the same duration. Upon treatment, cell lysates (both OPM2 and MM.1S) were generated by harvesting 1×10^6 cells/mL, followed by washing 2× and pelleting in phosphate buffered saline (PBS; 137 mM NaCl, 10 mM Na2HPO4, […], and 1.75 mM KH2PO4 at pH 7.4). The cell pellet was re-suspended in an approximately equivalent volume of M-PER to the volume of the cell pellet (1000-2000 μL) then vortexed for 10 min at room temperature. Following this, the mixture was centrifuged at 14,000×g for 15 min at 4° C. and the supernatant transferred to a centrifuge tube and stored on ice until use. Total protein concentration was determined using a NanoDrop 2000c (Thermo Scientific, Madison, Wis.).
(§5) The commercial DUB reporter, Z-LRGG-AMC (substrate) (SEQ ID NO: 1) was reconstituted in DMSO to obtain a final stock concentration of 1.44 mM. This stock reporter was diluted as needed in assay buffer (50 mM HEPES, pH 7.4, 150 mM NaCl, 2 mM DTT, and 0.02% Tween-20) supplemented with 4 mg/mL cell lysates (source of DUBs) to reach the desired reporter concentration with a final volume of 100 μL in a 96-well plate. OPM2 and MM.1S cell lysates from different treatments (10 μg/mL of PMI-5011; 1, 10, and 30 μg/mL of DMC-1, DMC-2, KOE, davidigenin and control vehicle DMSO) and C2C12 cell lysates were used to interrogate the effect of the ethanolic extract and selected bioactive compounds on DUB activity. Reporter only and lysates only (noise/background) samples were included in the 96-well plate to confirm that the rates observed were due to DUB-mediated hydrolysis initiated by the cell lysates. The 96-well plate was maintained at a temperature of 30° C. in the dark for the duration of the experiment. The fluorescence signals emitted as a result of DUB-mediated cleavage of AMC (λex=355 nm and λem=460 nm) were quantified using a Wallac 1420 VICTOR2 multilabel HTS counter fluorometry (Perkin Elmer (Waltham, Mass.). Readings were collected every 30 min for 6 h. The normalized signals were obtained by comparing the treatment with noise and background fluorescence values which were then statistically analyzed for their significance. Each data point represents triplicate data points from duplicate experiments. A calibration curve was generated for known concentrations of AMC to correlate the fluorescence signal (AU) to concentration (μM). The approximate concentration of free fluorophore was used to calculate reaction rates (μM/min) for each substrate concentration using linear regression analysis.
(§6) All data visualization, interpretation and curve-fittings were performed using Origin Pro (OriginLab, Northampton, MA) while statistical analyses of experimental data were carried out using SAS 9.4 (SAS Solutions). The analyses of enzyme-substrate reactions in all cell lysates started with scatter plotting the fluorometry signals (p,M) measured for each substrate concentration against time (min). Fluorescence signals measured for each substrate concentration remained stable during the first 30 min, indicating there was a 30-minute lag period before reaction initiation. […]

[3] = test system: deubiquitinating enzymes (DUBs); assay: DUB activity (Z-LRGG-AMC cleavage) in lysates of treated MM.1S cells; type: cell-based; details: for Vmax / effect on DUB activity vs DMSO control / Km / n (Hill coefficient): 16 h; for effect of increasing concentration on DUB activity (normalized Vmax): 1, 10, 30 μg/mL, regression fit
Experimental: as §4, §5, §6

[4] = MTT cellular viability assay, OPM2; type: cell-based; details: human, OPM2 cells, read-out: percentage of viable cells
Experimental: as §1, §2, §3

[5] = test system: DUB; assay: Experiment 2: DUB reporter Z-LRGG-AMC with control, 5011, IU1 and KOE lysates; type: biochemical; details: lysate 4 mg/mL
Experimental: Peptide used was the commercial DUB reporter [Z-LRGG-AMC (SEQ ID NO: 1)] at multiple concentration [50-150 um]. 640 μL protein at 10 mg/mL for each set was given. Final protein concentration in micro-wells was 4 mg/mL. Peptide was incubated with control, 5011 treated, 25 uM IU1, 50 uM IU1 and KOE in DUB assay buffer. Fluorometric readings were taken at different time points in plate reader. Measured at [Em 460/Ex 355]. Fluorescent signals were converted to μM/min using a calibration curve for the AMC fluorophore. Rates were plotted vs. substrate concentration (Z-LRGG-AMC peptide (SEQ ID NO: 1)) (FIG. 7).

[6] = Table 2, OPM-2, 1 μg/mL, in µM/min
[7] = Table 2, OPM-2, 10 μg/mL, in µM/min
[8] = Table 2, OPM-2, 30 μg/mL, in µM/min

Row | Structure (SMILES) | viability at 16 h, 1 μg/mL [1] [%] | viability at 16 h, 30 μg/mL [1] [%] | Vmax ([2]; OPM2, 1 μg/mL) [µM/min] | effect on DUB activity vs DMSO control ([2]; OPM2, 1 μg/mL) | Vmax ([2]; OPM2, 10 μg/mL) [µM/min] | effect on DUB activity vs DMSO control ([2]; OPM2, 10 μg/mL) | Vmax ([2]; OPM2, 30 μg/mL) [µM/min] | effect on DUB activity vs DMSO control ([2]; OPM2, 30 μg/mL) | effect of increasing concentration on DUB activity (normalized Vmax) ([2]; OPM2) | Km ([2]; Table 2, OPM-2, 1 μg/mL) [µM] | n (Hill coefficient) ([2]; Table 2, OPM-2, 1 μg/mL) | Vmax [2, 6] | Km ([2]; Table 2, OPM-2, 10 μg/mL) [µM] | n (Hill coefficient) ([2]; Table 2, OPM-2, 10 μg/mL) | Vmax [2, 7] | Km ([2]; Table 2, OPM-2, 30 μg/mL) [µM] | n (Hill coefficient) ([2]; Table 2, OPM-2, 30 μg/mL) | Vmax [2, 8] | Vmax ([3]; 1 μg/mL) [µM/min] | effect on DUB activity vs DMSO control ([3]; 1 μg/mL) | further results
1 | O=C(CCc1ccc(O)cc1)c1ccc(O)cc1O [DVG, 1-(2,4-dihydroxyphenyl)-3-(4-hydroxyphenyl)propan-1-one] | ~105 | ~80 | 23.32 ± 1.58 | significantly enhanced | 24.76 ± 1.84 | significantly enhanced | 315.24 ± 41.65 | significantly enhanced | exponential increase | 56.4 | 0.82 | 23.32 | 45.5 | 1.78 | 24.76 | 89.4 | 1.34 | 315.24 | 12.72 ± 0.78 | significantly enhanced | effect on DUB activity (summary) ([2]; OPM2): enhance; effect on DUB activity (summary) [3]: inhibit; Vmax ([3]; 10 μg/mL): 12.23 ± 1.30 µM/min; effect on DUB activity vs DMSO control ([3]; 10 μg/mL): significantly enhanced; Vmax ([3]; 30 μg/mL): 6.48 ± 0.54 µM/min; effect on DUB activity vs DMSO control ([3]; 30 μg/mL): significantly inhibited; effect of increasing concentration on DUB activity (normalized Vmax) [3]: negative linear effect; Km ([3]; Table 2, 1 μg/mL): 30.2 µM; Vmax ([3]; Table 2, 1 μg/mL): 0.0127 µM/min; n (Hill coefficient) ([3]; Table 2, 1 μg/mL): 2.01; Km ([3]; Table 2, 10 μg/mL): 39.2 µM; Vmax ([3]; Table 2, 10 μg/mL): 0.0122 µM/min; n (Hill coefficient) ([3]; Table 2, 10 μg/mL): 1.92; Km ([3]; Table 2, 30 μg/mL): 38.4 µM; Vmax ([3]; Table 2, 30 μg/mL): 0.00648 µM/min; n (Hill coefficient) ([3]; Table 2, 30 μg/mL): 1.51; viability at 16 h, 1 μg/mL [4]: ~90%; viability at 16 h, 30 μg/mL [4]: ~60%
2 | COc1ccc(C(=O)CCc2ccc(O)cc2)c(O)c1 [DMC-1, 1-(2-hydroxy-4-methoxyphenyl)-3-(4-hydroxyphenyl)propan-1-one] | ~95 | ~55 | 33.06 ± 5.08 | significantly inhibiting | 27.93 ± 4.80 | significantly inhibiting | 233.44 ± 27.31 | significantly enhanced | exponential increase | 61.4 | 1.29 | 33.06± | 46.3 | 1.40 | 27.93 | 140 | 0.93 | 233.44 | 7.03 ± 1.10 | significantly inhibiting | Vmax ([3]; 10 μg/mL): 9.19 ± 0.78 µM/min; effect on DUB activity vs DMSO control ([3]; 10 μg/mL): significantly inhibiting; Vmax ([3]; 30 μg/mL): 12.91 ± 1.45 µM/min; effect on DUB activity vs DMSO control ([3]; 30 μg/mL): significantly enhanced; effect of increasing concentration on DUB activity (normalized Vmax) [3]: positive linear effect; Km ([3]; Table 2, 1 μg/mL): 21 µM; Vmax ([3]; Table 2, 1 μg/mL): 0.00703 µM/min; n (Hill coefficient) ([3]; Table 2, 1 μg/mL): 1.33; Km ([3]; Table 2, 10 μg/mL): 26 µM; Vmax ([3]; Table 2, 10 μg/mL): 0.00919 µM/min; n (Hill coefficient) ([3]; Table 2, 10 μg/mL): 1.64; Km ([3]; Table 2, 30 μg/mL): 29.3 µM; Vmax ([3]; Table 2, 30 μg/mL): 0.0129 µM/min; n (Hill coefficient) ([3]; Table 2, 30 μg/mL): 1.07; viability at 16 h, 1 μg/mL [4]: ~100%; viability at 16 h, 30 μg/mL [4]: ~60%
3 | Cc1cc(C(=O)CN2CCCC2)c(C)n1-c1ccc(F)cc1 [IU1] | – | – | – | – | – | – | – | – | – | – | – | – | – | – | – | – | – | – | – | – | effect on DUB activity vs control ([5]; 25 μM): inhibit; effect on DUB activity vs control ([5]; 50 μM): inhibit
